Data as given in ChEMBL document CHEMBL1201862, “PubChem BioAssay data set” (2004).
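The compound was tested at five concentrations on cells cultured in 96-well plates, with a 48-hour exposure period. GI50 marks 50% less growth.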 The source made the active and inactive calls. No stated cut-off is given here; in the data, active = GI50 up to about 1.1 µM and inactive = higher.

How the values were obtained:
Assay in all cases: NCI-60 cell line screen, 48 h
K562 = tested on: K562
BT-549 = tested on: BT-549
TK-10 = tested on: TK-10
SF-295 = tested on: SF-295
SF-268 = tested on: SF-268
Malme-3M = tested on: Malme-3M
OVCAR-4 = tested on: OVCAR-4
CCRF-CEM = tested on: CCRF-CEM
SR = tested on: SR
HCT-116 = tested on: HCT-116
HOP-92 = tested on: HOP-92
SK-MEL-2 = tested on: SK-MEL-2
MOLT-4 = tested on: MOLT-4
MDA-MB-231 = tested on: MDA-MB-231
CAKI-1 = tested on: CAKI-1
LOX IMVI = tested on: LOX IMVI
OVCAR-5 = tested on: OVCAR-5
ACHN = tested on: ACHN
U-251 = tested on: U-251
SNB-19 = tested on: SNB-19

Measured: GI50

COc1ccc(-c2nc(N)n(C)c2SSc2c(-c3ccc(OC)cc3)nc(N)n2C)cc1
inactive: K562 2.83 µM | BT-549 2.32 µM | TK-10 14.5 µM | SF-295 11.6 µM | SF-268 12.6 µM | Malme-3M 9.42 µM | OVCAR-4 6.59 µM | CCRF-CEM 2.76 µM | SR 2.23 µM | HCT-116 2.65 µM | HOP-92 2.28 µM | SK-MEL-2 15.6 µM | MOLT-4 2.13 µM | MDA-MB-231 6.78 µM | CAKI-1 10.1 µM | LOX IMVI 2.03 µM | OVCAR-5 6.85 µM | ACHN 3.94 µM | U-251 13 µM | SNB-19 12.9 µM

COc1ccc(-c2cc(-c3ccccc3)n(C3OCC(OC(C)=O)C(OC(C)=O)C3OC(C)=O)c(=S)c2C#N)cc1 (stereo unspecified)
inactive: K562 > 100 µM | BT-549 > 100 µM | TK-10 63 µM | SF-295 56.4 µM | SF-268 > 100 µM | Malme-3M > 100 µM | OVCAR-4 > 100 µM | CCRF-CEM > 100 µM | SR > 100 µM | HCT-116 86.5 µM | HOP-92 16 µM | SK-MEL-2 25 µM | MOLT-4 > 100 µM | MDA-MB-231 > 100 µM | CAKI-1 67.5 µM | LOX IMVI > 100 µM | OVCAR-5 87.1 µM | ACHN 37.4 µM | U-251 > 100 µM | SNB-19 > 100 µM

C=CCOc1ccc(C2(c3ccc(OCC=C)cc3)C(=O)Nc3ccccc32)cc1
inactive: K562 > 10 µM | BT-549 9.31 µM | TK-10 > 10 µM | SF-295 > 10 µM | SF-268 > 10 µM | Malme-3M > 10 µM | OVCAR-4 3.4 µM | CCRF-CEM > 10 µM | SR > 10 µM | HCT-116 > 10 µM | HOP-92 > 10 µM | SK-MEL-2 > 10 µM | MOLT-4 > 10 µM | MDA-MB-231 > 10 µM | CAKI-1 > 10 µM | LOX IMVI > 10 µM | OVCAR-5 > 10 µM | ACHN > 10 µM | U-251 > 10 µM | SNB-19 > 10 µM

[O-][Cl+3]([O-])([O-])[O-].[O-][Cl+3]([O-])([O-])[O-].c1ccn2c(N3CCCC3)[n+]3c4ccccc4n4c(N5CCCC5)[n+]5ccccc5c4c3c2c1
inactive: K562 35.8 µM | BT-549 30.9 µM | TK-10 > 100 µM | SF-295 46.3 µM | SF-268 15.3 µM | Malme-3M 36.2 µM | OVCAR-4 > 100 µM | CCRF-CEM > 100 µM | SR 38.1 µM | HCT-116 > 100 µM | HOP-92 73.1 µM | SK-MEL-2 39.2 µM | MOLT-4 > 100 µM | MDA-MB-231 > 100 µM | CAKI-1 > 100 µM | LOX IMVI > 100 µM | OVCAR-5 > 100 µM | ACHN > 100 µM | U-251 28.2 µM | SNB-19 29.4 µM

CCOP(=O)(OCC)C(Nc1cccc(F)c1)c1ccc(N(C)C)cc1 (stereo unspecified)
inactive: K562 49.1 µM | BT-549 > 100 µM | TK-10 > 100 µM | SF-295 57 µM | SF-268 > 100 µM | Malme-3M > 100 µM | OVCAR-4 > 100 µM | CCRF-CEM 90.4 µM | SR > 100 µM | HCT-116 48.5 µM | HOP-92 18 µM | SK-MEL-2 > 100 µM | MOLT-4 40.4 µM | MDA-MB-231 78.2 µM | CAKI-1 > 100 µM | LOX IMVI 70.5 µM | OVCAR-5 > 100 µM | ACHN > 100 µM | U-251 > 100 µM | SNB-19 > 100 µM

CCCCn1c(C)c2c(c1C)C(=O)N(CCN1CCN(c3ccccc3Cl)CC1)C2=O
inactive: K562 31.6 µM | BT-549 17.3 µM | TK-10 43.5 µM | SF-295 23.1 µM | SF-268 17.6 µM | Malme-3M 21 µM | OVCAR-4 51.2 µM | CCRF-CEM 29.3 µM | SR 26.4 µM | HCT-116 18.6 µM | HOP-92 25.4 µM | SK-MEL-2 20 µM | MOLT-4 22 µM | MDA-MB-231 51.2 µM | CAKI-1 69.3 µM | LOX IMVI 16.5 µM | OVCAR-5 61.8 µM | ACHN 38.1 µM | U-251 36.5 µM | SNB-19 92.3 µM

Cc1c(N2C(=O)/C(=C/C=C/c3ccccc3)N=C2c2ccccc2)c(=O)n(-c2ccccc2)n1C
inactive: K562 19 µM | BT-549 20.1 µM | TK-10 32.9 µM | SF-295 19.1 µM | SF-268 22.6 µM | Malme-3M 28.8 µM | OVCAR-4 17.8 µM | CCRF-CEM 27.2 µM | SR 17.4 µM | HCT-116 34.8 µM | HOP-92 22.2 µM | SK-MEL-2 21.8 µM | MOLT-4 14.9 µM | MDA-MB-231 22.1 µM | CAKI-1 37.8 µM | LOX IMVI 21.5 µM | OVCAR-5 24.8 µM | ACHN 17.8 µM | U-251 16.8 µM

OC(Cc1cccnc1)(c1ccccc1)c1ccccc1
inactive: K562 72.1 µM | BT-549 73.6 µM | TK-10 > 100 µM | SF-295 53.8 µM | SF-268 > 100 µM | Malme-3M > 100 µM | OVCAR-4 > 100 µM | CCRF-CEM > 100 µM | SR 58.7 µM | HCT-116 > 100 µM | HOP-92 > 100 µM | SK-MEL-2 > 100 µM | MDA-MB-231 > 100 µM | CAKI-1 > 100 µM | LOX IMVI > 100 µM | OVCAR-5 > 100 µM | ACHN > 100 µM | U-251 > 100 µM | SNB-19 > 100 µM

C=CCOc1cccc(C2(O)c3ccccc3C3=NCCCN32)c1 (stereo unspecified)
inactive: K562 4.58 µM | BT-549 > 100 µM | TK-10 33.3 µM | SF-268 54.7 µM | Malme-3M 19.9 µM | OVCAR-4 15.5 µM | CCRF-CEM 15.4 µM | SR 8.81 µM | HCT-116 10.9 µM | HOP-92 21.8 µM | SK-MEL-2 1.72 µM | MOLT-4 10.2 µM | MDA-MB-231 57 µM | CAKI-1 34.7 µM | LOX IMVI 14.5 µM | OVCAR-5 29.7 µM | ACHN 3.63 µM | U-251 15.6 µM | SNB-19 2.45 µM

CCOC(=O)NC(Nc1ccc(OC(F)(F)F)cc1)(C(F)(F)F)C(F)(F)F
inactive: K562 > 100 µM | BT-549 > 100 µM | TK-10 > 100 µM | SF-295 > 100 µM | SF-268 > 100 µM | Malme-3M > 100 µM | CCRF-CEM > 100 µM | SR > 100 µM | HCT-116 > 100 µM | HOP-92 > 100 µM | SK-MEL-2 > 100 µM | MOLT-4 > 100 µM | MDA-MB-231 > 100 µM | CAKI-1 > 100 µM | LOX IMVI > 100 µM | OVCAR-5 > 100 µM | ACHN > 100 µM | U-251 > 100 µM | SNB-19 > 100 µM
